Experimental data reported in PubChem BioAssay (NCI).
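Cells were grown in 96-well plates and exposed to each compound for 48 hours at five concentrations; endpoints were interpolated linearly between bracketing concentrations, or set to the highest concentration if not reached. Definition used: TGI = concentration required for complete inhibition of growth.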

What was measured:
Experiment in all cases: NCI anticancer screen, dose series, 48 h
[1] = test system: 786-0 renal
[2] = test system: A498 renal
[3] = test system: A549 NSCLC
[4] = test system: ACHN renal
[5] = test system: BT-549 breast
[6] = test system: CAKI-1 renal
[7] = test system: CCRF-CEM leukemia
[8] = test system: COLO 205 colon
[9] = test system: DU-145 prostate
[10] = test system: EKVX NSCLC
[11] = test system: HCC-2998 colon
[12] = test system: HCT-116 colon
[13] = test system: HCT-15 colon
[14] = test system: HL-60(TB) leukemia
[15] = test system: HOP-62 NSCLC
[16] = test system: HOP-92 NSCLC
[17] = test system: HS 578T breast
[18] = test system: HT29 colon
[19] = test system: IGROV1 ovarian
[20] = test system: K-562 leukemia
[21] = test system: KM12 colon
[22] = test system: LOX IMVI melanoma
[23] = test system: M14 melanoma
[24] = test system: MALME-3M melanoma
[25] = test system: MCF7 breast
[26] = test system: MDA-MB-231 breast
[27] = test system: MDA-MB-435
[28] = test system: MDA-N
[29] = test system: MOLT-4 leukemia
[30] = test system: NCI-H226 lung
[31] = test system: NCI-H23 lung
[32] = test system: NCI-H460 lung
[33] = test system: NCI-H522 lung
[34] = test system: NCI/ADR-RES ovarian
[35] = test system: OVCAR-3 ovarian
[36] = test system: OVCAR-4 ovarian
[37] = test system: OVCAR-5 ovarian
[38] = test system: OVCAR-8 ovarian
[39] = test system: PC-3 prostate
[40] = test system: RPMI-8226 leukemia
[41] = test system: RXF 393 renal
[42] = test system: SF-268 CNS
[43] = test system: SF-295 CNS
[44] = test system: SF-539 CNS
[45] = test system: SK-MEL-2 melanoma
[46] = test system: SK-MEL-28 melanoma
[47] = test system: SK-MEL-5 melanoma
[48] = test system: SK-OV-3 ovarian
[49] = test system: SN12C renal
[50] = test system: SNB-19 CNS
[51] = test system: SNB-75 CNS
[52] = test system: SR leukemia
[53] = test system: SW-620 colon
[54] = test system: T-47D breast
[55] = test system: TK-10 renal
[56] = test system: U251 CNS
[57] = test system: UACC-257 melanoma
[58] = test system: UACC-62 melanoma
[59] = test system: UO-31 renal

Measured: TGI

O=C1c2ccccc2C(=O)N1CCCSc1ccccc1
> 100 µM: all assays above
